For assay [1], the system named is CD11b positive cells (microglial cells). In words: mRNA expression of M1/M2 markers and cytokines in sorted CD11b positive cells after sepsis. The class given is in vivo, mice. As to the method:
RNA Purification: Total brains or mircodissected brain under binoccular magnifier were collected in liquid nitrogen and stored at −80° C. before processing. Tissues were unfrosted in 1 ml of Qiazol (Qiagen, Nederland) and shredded using a TissueLyzer II and metallic beads (Qiagen, Nederland). Two hundred microlitters of chloroform (Merck, Darmstadt, Deutschland) were added before spinning for 15′ at 4° C.-20 000 rpm. The upper aqeuous phase was collected and purified using RNEasy Minikit with a DNAse step (Qiagen, Nederland) to remove any remaining genomic DNA. Purified RNA were quantified and a reverse transcription on 500 ng of RNA using SuperScript® II Reverse Transcriptase (Life Technologies) was realized. Quantitative real time polymerase chain reaction was performed on 10 ng cDNA with SYBR® Select Master Mix (Roche, Franche) following manufacturer's recommandation on a StepOne™ Real-Time PCR System (Life Technologies) and results were analyzed on StepOne softwares. Triplicates with a Cycle Threshold standard deviation <0.2 were considered for further analyzes. ΔΔCT method was used to quantify fold increases between animals from different groups to control group mean. The following primers were used.
Datas are presented as mean±SEM compared to septic placebo group set at 1.

Assay [2] concerns primary murine microglial cells. Briefly: Pro- and anti-inflammatory marker transcription in primary microglial cells exposed to LPS. It counts as cell-based, C57/B16 mice. Conditions: primary microglial cells after LPS exposure. The source says: (§1) NO: 53) and anti-sense primer:[…] NO: 54). […] ID NO: 55) and anti-sense primer […] NO: 56). […] NO: 57) and anti-sense primer:[…] NO: 58).

Assay [3] concerns rats treated to model traumatic brain injury. Conditions: 54 mg/kg or 170 mg/kg single perfusion 15 minutes after injury; cited from earlier work.
The test system of assay [4] is CLP mice. In words: Sepsis score after CLP. The class given is in vivo, C57Bl/6 mice. The settings on record: evaluated every 12 hours. As to the method: Analgesia and rehydration of mice were performed with buprenorphine (0.1 mg/Kg, Buprecare, Axience, Pantin, France) every 12 hours until complete recovery. […] Clinical scoring: Sepsis severity was evaluated twice a day until day 4, or normalization of «sepsis score», a previously described score that ranges from […]. This score evaluates markers of local (abdominal spasm) and systemic reaction to sepsis (rectal temperature, fur erection, abnormal breathing), behavioural alterations (feces cleaning, presence of periocular dried eyedrop, incomplete palpebral opening, spontaneous activity in the cage, the escape attempt after tail grabbing) and signs of muscular weakness (grip strength, body tone, difficulty to walk). Each item was scored 0 or 1, with a total score rang from 0 (normal) to 12 (highly severe). For ethical reason, mice with a sepsis score ≥8 and a temperature ≤34.5° C. were euthanized as they were considered to almost certainly die within the 12 hours.
FIG. 1C. Sepsis score was evaluated every 12 hours (general state criteria, temperature, fur erection, respiratory rate, sickness behaviour, spontaneous activity in the home cage, lacrimation, palpebral closure, feces toilet, locomotor criteria, grip strength, difficulties walking, local reaction, abdominal wall contraction, axial body tone). Datas are presented as mean±SEM.

Assay [5] has as its system CLP mice. Briefly: Fear conditioning test after sepsis. The class given is in vivo. How it is done: Comportemental tests: Every comportemental tests were started 15 days after sepsis induction. The experimentator was blinded to the experimental group.
Fear conditioning. Mice underwent the classical fear conditioning test with a cued stimulus (auditory tone) and an uncued stimulus (electric shock). During two consecutive conditioning trials, 2 minutes resting followed by a 48s tone ([…] tone, 60 db) and 5 electrical footshocks of 2 joules during 2 seconds. Twenty four hours after conditioning, mice underwent the fear memory recall after exposition to a contextual stimulus (shock cage in the same configuration without auditory tone) or an auditory stimulus (Auditory tone in a different cage with a vanilla artificial odor). Freezing was evaluated for 2 seconds every 8 seconds and was defined as the absence of movement of the mouse with tail erection. Percentage of 10 seconds period freezing was reported to the total amount of freezing.

Assay [6] has as its system pro- and anti-inflammatory cytokine levels in Serum. Briefly: Cytokine multiplex in serum after sepsis. The settings on record: 24 hours after sepsis induction. It counts as in vivo, mice. How it is done: Cytokine multiplex: Brain samples were weighed and unfrosted in 100 μl of extraction buffer (PBS 1×, complete protease inhibitor, sigma-aldrich, triton 0.1%) processed in 2 ml Lysing Matrix A tubes with FastPrep-24 (MP biomedicals, Germany). Tubes were centrifuged at 20000 g at 4° C. and supernatant was collected and protein concentration was determined with light absorbance at 280 nm using a Nanodrop Lite Spectrophotometer (Thermo Scientific). Sera were used undiluted. Cytokines were measured using a Bio-Plex System and Mouse Cytokine Standard 23-Plex Group 1 kit following manufacturer's recommendations. Raw datas were analyzed by dividing the concentration of cytokine with protein concentration in lyzate and weight of sample measured on precision balance. Then every cytokine concentrations are presented as a ratio compared to the untreated sepsis group.

Assay [7] deals with Inducible NO synthase gene (inos). The class given is cell-based, murine. The settings on record: 24 hours.
Description: as §1

For assay [8], the system named is pro- and anti-inflammatory cytokine levels in brain parenchyma. In words: Cytokine multiplex in brain parenchyma after sepsis. It counts as in vivo, mice. The settings on record: 24 hours after sepsis induction.
Description: Cytokine multiplex: Brain samples were weighed and unfrosted in 100 μl of extraction buffer (PBS 1×, complete protease inhibitor, sigma-aldrich, triton 0.1%) processed in 2 ml Lysing Matrix A tubes with FastPrep-24 (MP biomedicals, Germany). Tubes were centrifuged at 20000 g at 4° C. and supernatant was collected and protein concentration was determined with light absorbance at 280 nm using a Nanodrop Lite Spectrophotometer (Thermo Scientific). […] Cytokines were measured using a Bio-Plex System and Mouse Cytokine Standard 23-Plex Group 1 kit following manufacturer's recommendations. Raw datas were analyzed by dividing the concentration of cytokine with protein concentration in lyzate and weight of sample measured on precision balance. Then every cytokine concentrations are presented as a ratio compared to the untreated sepsis group.
Assay [9] deals with murine primary monocytic cells. In words: Nitric Oxide production in primary monocytic cells exposed to LPS. The class given is cell-based. The settings on record: activated murine monocytic cells, LPS 10 μg/mL, cell culture supernatant, dose effect relationship. How it is done:
LPS exposure increased NO production at a dose of 10 μg/mL after 24 exposure in cell culture supernatant.

Assay [10] concerns primary murine microglial cells. Briefly: Cytokine transcription in LPS-activated primary microglial cells. The settings on record: for increase of TNFalpha gene expression: p<0.0001; for IL6 gene expression: 24 hours. It counts as cell-based, C57/B16 mice.
Description: as §1

The mark [11] stands for this setting: CD11b positive cells, 24 hours after sepsis, vs placebo.

Like-named read-outs stand apart in the source and are kept apart here.

The source of these data is US20220233503A1, “METHODS OF TREATING SEPSIS WITH SYNAPTIC VESICLE 2A AND/OR 2B BINDING CHEMICAL ENTITIES” (INSTITUT PASTEUR, priority 2016, published 2022).

For `CC[C@@H](C(N)=O)N1CCCC1=O` (single isomer, unassigned) [levetiracetam], in assay [1] (setting [11]), the CD32 transcription entry is on record as “increased”, the CD86 transcription result was “increased”, the “Il 1 beta transcription” value is on record as “increased” and the “MCP 1 transcription” value was “increased”. Besides, in assay [1] (setting [11]), the “anti inflammatory markers transcription” value is given as “not increased”. The microglial cell polarization result in assay [1] (microglial cell sorting in whole brain of septic mice) was “polarized towards a pro-inflammatory (M1) phenotype”. Also, in assay [2], the “expression of anti and proinflammatory markers” value is listed as “modified”. Moreover, in assay [3], the cognitive outcome is reported as “improved”. Moreover, in the assay on CLP mice [4], the “sepsis score vs placebo” value is “did not differ”. The “motor response to electric shock during conditioning period” value in the assay with CLP mice [5] (between groups) is “did not differ”. For the same molecule, in the assay on CLP mice [5] (levetiracetam treated vs placebo treated CLP mice, p=0,024), the auditory freezing time entry is “lower”. The “cytokine concentration in plasma” value in assay [6] is recorded as “No significant effect”. Also, the inos expression entry in assay [7] (high dose LPS challenge) is “failed to modulate”. Also, the inos expression entry in assay [7] (high dose levetiracetam, low dose LPS challenge) is reported as “lowered”. Further, the “TNF alpha in brain parenchyma (multiplex)” value in [8] (sepsis group treated) was “could not be detected”. The “IL4 concentration in brain parenchyma (multiplex)” value in [8] (vs septic mice receiving saline) was “increased”. The “production of Nitric Oxide” value in assay [9] is on record as “reduced”. Also, the “increase of TNFalpha gene expression” value in [10] (high LPS (10 ng/mL), high dose levetiracetam (100 micrograms/mL), [0.86-0.30]) turned out to be 0.58. In assay [10] (high LPS (10 ng/mL), low dose levetiracetam (10 micrograms/mL), [0.10-0.66], p<0.01), the “decrease of TNFalpha gene expression” value stood at 0.38. In addition, the IL6 gene expression in assay [10] (high-dose LPS (10 ng/mL), high-dose levetiracetam (100 micrograms/mL), [0.25-0.97], p<0.001) was 0.61 fold. Also, the IL1 beta expression entry in [10] (in vitro, activated microglial cell or not) was “No effect”. Also, the “increase of TNFalpha gene expression” value in assay [10] (low LPS (1 ng/mL), low levetiracetam (10 micrograms/mL), [0.82-0.26]) is listed as 0.53. Further, in assay [10] (low-dose LPS challenge (1 ng/mL)), the IL6 gene expression entry is “did not modify”.
